Drawing on BindingDB's records for doi:10.1111/cbdd.12205 (Srtm University, 2014), this text covers IC50 for nine molecules.

Each structure is given as a SMILES string. pIC50: −log10 of the molar value.

Assay [1] has as its target Xanthine dehydrogenase/oxidase (Bos taurus, UniProt P80457). The assay is described as follows: Xanthine Oxidase Activity. To be noted: pH 7.6; 25 °C. The method, then: The enzyme was preincubated with test compound, dissolved in DMSO (1% v/v), for 5 min and the reaction was initiated by the addition of xanthine.
Assay [2] has as its target Alpha-glucosidase MAL12 (Saccharomyces cerevisiae (strain ATCC 204508 / S288c), UniProt P53341). Nature of the assay: Alpha-Glucosidase Assay. As for the experimental part: The assay was performed using isolated phenolics from maize, and inhibition was determined according to previously described method.

Chain of Xanthine dehydrogenase/oxidase (P80457 whole entry): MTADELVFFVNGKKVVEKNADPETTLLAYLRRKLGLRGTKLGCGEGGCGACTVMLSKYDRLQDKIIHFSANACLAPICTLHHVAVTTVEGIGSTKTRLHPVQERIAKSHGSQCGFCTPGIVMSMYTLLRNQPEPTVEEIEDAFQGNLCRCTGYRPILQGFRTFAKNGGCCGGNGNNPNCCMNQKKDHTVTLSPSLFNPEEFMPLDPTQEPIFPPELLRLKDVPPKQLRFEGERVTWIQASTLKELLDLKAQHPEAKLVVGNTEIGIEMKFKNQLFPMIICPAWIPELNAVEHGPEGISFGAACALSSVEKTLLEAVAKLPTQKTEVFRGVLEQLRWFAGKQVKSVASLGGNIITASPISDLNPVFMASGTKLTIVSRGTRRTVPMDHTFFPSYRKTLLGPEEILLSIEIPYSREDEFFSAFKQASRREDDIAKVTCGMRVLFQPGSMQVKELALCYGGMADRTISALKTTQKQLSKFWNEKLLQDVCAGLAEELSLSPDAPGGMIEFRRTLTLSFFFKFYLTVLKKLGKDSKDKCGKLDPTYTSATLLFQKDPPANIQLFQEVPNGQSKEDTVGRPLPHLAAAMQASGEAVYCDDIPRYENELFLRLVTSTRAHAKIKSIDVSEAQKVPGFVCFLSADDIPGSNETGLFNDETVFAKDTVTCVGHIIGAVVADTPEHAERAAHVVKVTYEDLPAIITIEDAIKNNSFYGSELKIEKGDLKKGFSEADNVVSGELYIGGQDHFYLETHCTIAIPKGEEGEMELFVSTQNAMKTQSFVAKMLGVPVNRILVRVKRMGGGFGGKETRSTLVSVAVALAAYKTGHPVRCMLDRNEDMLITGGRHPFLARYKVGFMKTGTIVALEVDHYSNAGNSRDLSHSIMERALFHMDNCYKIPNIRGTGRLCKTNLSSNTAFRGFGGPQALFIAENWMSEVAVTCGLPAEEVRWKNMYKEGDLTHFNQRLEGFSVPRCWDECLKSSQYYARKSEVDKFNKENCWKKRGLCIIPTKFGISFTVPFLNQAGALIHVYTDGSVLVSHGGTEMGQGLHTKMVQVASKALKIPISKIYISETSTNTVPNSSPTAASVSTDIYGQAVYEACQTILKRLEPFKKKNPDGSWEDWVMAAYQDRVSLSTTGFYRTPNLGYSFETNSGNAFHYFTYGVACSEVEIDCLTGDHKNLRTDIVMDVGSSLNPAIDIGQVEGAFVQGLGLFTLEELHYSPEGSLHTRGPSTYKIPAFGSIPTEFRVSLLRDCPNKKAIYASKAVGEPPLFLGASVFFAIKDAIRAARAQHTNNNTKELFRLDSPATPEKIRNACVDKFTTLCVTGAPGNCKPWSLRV
Chain of Alpha-glucosidase MAL12 (P53341 whole entry): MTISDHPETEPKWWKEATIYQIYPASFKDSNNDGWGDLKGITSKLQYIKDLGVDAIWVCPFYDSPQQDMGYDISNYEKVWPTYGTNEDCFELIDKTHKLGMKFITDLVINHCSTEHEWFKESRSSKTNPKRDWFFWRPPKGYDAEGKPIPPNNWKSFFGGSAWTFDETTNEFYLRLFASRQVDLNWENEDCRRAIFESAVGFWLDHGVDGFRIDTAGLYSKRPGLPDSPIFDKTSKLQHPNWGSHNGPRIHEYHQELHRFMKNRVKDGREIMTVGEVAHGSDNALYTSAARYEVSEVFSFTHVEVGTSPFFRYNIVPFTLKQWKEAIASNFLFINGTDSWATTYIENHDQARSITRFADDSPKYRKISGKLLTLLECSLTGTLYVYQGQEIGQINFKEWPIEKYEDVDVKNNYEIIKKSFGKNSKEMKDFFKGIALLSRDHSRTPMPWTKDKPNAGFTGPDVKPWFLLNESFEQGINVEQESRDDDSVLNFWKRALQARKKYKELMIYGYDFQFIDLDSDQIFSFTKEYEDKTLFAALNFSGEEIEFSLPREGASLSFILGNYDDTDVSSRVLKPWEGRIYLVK

For the molecule `COc1cc(/C=C/C(=O)O)ccc1O` [Ferulic acid (M5)], the pIC50 in assay [1] was 5.09; in assay [2], 3.60.
In the same order, the values of `O=c1cc(O)cc2oc(-c3ccc(O)cc3)c(OC3OC(CO)C(O)C(O)C3O)cc1-2` [5,7‐dihydroxy‐2‐(4‐hydroxyphenyl)‐3‐ {[(2S,3R,4S,5S,6R)‐3,4,5‐trihydroxy‐6‐ (hydroxymethyl)oxan‐2‐yl]oxy}‐1λ⁴‐chromen‐1‐ylium] are 5.15 and 3.70.
In the same order, the values of `COc1cc(-c2oc3cc(O)cc(=O)c-3cc2OC2OC(CO)C(O)C(O)C2O)ccc1O` [5,7‐dihydroxy‐2‐(4‐hydroxy‐3‐methoxyphenyl)‐3‐ {[(2S,3R,4S,5S,6R)‐3,4,5‐trihydroxy‐6‐ (hydroxymethyl)oxan‐2‐yl]oxy}‐1λ⁴‐chromen‐1‐ylium] are 5.06 and 3.58.
In the same order, the values of `O=C(O)c1c(O)cc(O)cc1O` [2,4,6-trihydroxybenzoic acid (M3)] are 5.19 and 3.95.
With `O=C(O)/C=C/c1ccc(O)cc1` [p-Coumaric Acid], the negative logarithm of the IC50 (pIC50) in assay [1] is 5.17; in assay [2], 4.04.
In the same order, the values of `O=c1cc(O)cc2oc(-c3ccc(O)c(O)c3)c(OC3OC(CO)C(O)C(O)C3O)cc1-2` (stereo not drawn) [Cyanidin-3-glucoside (M8)] are 5.14 and 3.66.
In the same order, the values of `O=C(O)c1ccc(O)c(O)c1` [Protocatechuic acid (M1)] are 5.24 and 4.07.
In the same order, the values of `CC[C@H]1O[C@@H](Oc2c(-c3ccc(O)c(OC)c3)oc3cc(O)cc(=O)c-3c2O)[C@H](O)[C@@H](O)[C@@H]1O` [3‐{[(2S,3R,4S,5S,6R)‐6‐ethyl‐3,4,5‐trihydroxyoxan‐2‐ yl]oxy}‐5,7‐dihydroxy‐2‐(4‐hydroxy‐3‐ methoxyphenyl)‐4H‐chromen‐4‐one] are 5.07 and 3.61.
Regarding `COc1cc(C(=O)O)ccc1O` [4-hydroxy-3-methoxybenzoic acid], the pIC50 was 5.07 in assay [1] and 3.69 in assay [2].
